From paper PMC7719179, “Small molecule inhibition of Dynamin-dependent endocytosis targets multiple niche signals and impairs leukemia stem cells” (Nature Communications, 2020)
“And” between values parts separate entries of the source, which are not always exact repeats. Equal values may be shown once.

Assays:
[1] = tested on: IL-7R at the surface of Ba/F3-IL7R cells; experiment: Surface expression of IL-7R on Ba/F3-IL7R cells (flow cytometry); type: cell-based, murine; details: replicates
Method: Ba/F3 cells (kindly provided by a person from The Walter and Eliza Hall Institute of Medical Research) were infected with pMIG-R1/Il7r retroviral supernatants produced in 293T cells, and transduced cells were sorted with a BD Influx (BD Australia) and selected by culture in medium supplemented with 5 ng/mL rmIL-7 (#217-17, Pepro Tech, Rocky Hill NJ, USA) for 7 days. Ba/F3 cells stably expressing Il7r (Ba/F3-IL7R) were infected with TxTCPVIR-Stat5-CA retroviral supernatants produced in 293T. Cell sorting was performed with a BD Influx and transduced cells were treated with doxycycline for 48 h to induce the expression of the Stat5-CA-T2A-mCherry fusion protein.
Flow cytometry analyses were performed as previously described[10],[86] on single-cell suspensions stained using BD Pharmingen antibodies (BD Australia, North Ryde NSW, Australia) against mouse CD4 (RM4-5), CD8 (53-6.7), CD25 (PC61.5), CD44 (IM7), CD45.1 (A20), CD45.2 (104), Thy1.2 (53-2.1; #561616), TCRβ (H57-597), CD117 (ACK45), CD135 (A2F10.1), CD150 (TC15-12F12.2; #562373), B220 (RA3-6B2; #563708), CD3 (145-2C11; #563004), CD19 (ID3; #557655), Gr-1 (RB6-8C5; #563299 and #565033), CD11b (M1/70; #563015 and #560455), Ter119 (Ter119; #565523 and #557909), Sca-1 (D7; #558160) and an eBioscience antibody (eBioscience, Invitrogen) against mouse NOTCH1 (22E5). DN3 populations and IL-7R were stained using BioLegend antibodies (Australian Biosearch, Balcatta WA, Australia) against mouse CD28 (E18) and CD127 (A7R34), respectively. Apoptosis was measured using an antibody against AnnexinV (#556420, BD Australia) and the […] Sytox Blue (BD Australia) following the manufacturer’s protocol.
For in vitro IL-7 stimulation assays, cells were starved in serum-free DMEM at 37 °C, then incubated with either vehicle or Dynole 34-2 or Ruxolitinib (INCB018424; #S1378, Selleckchem), or DAPT (GSI-IX; #S2215, Selleckchem) resuspended in DMSO for 1 h. Thymocytes were subsequently stimulated with 25 ng/mL IL-7 at 37 °C for 20 min and washed twice using cold PBS 1×. Cells were incubated with 25 ng/mL Rat IgG (Sigma-Aldrich Pty Ltd, Castle Hill NSW, Australia) and with a PE-conjugated antibody for detection of IL-7R (CD127) for 1 h on ice, as described in the FACS analysis section. PE-conjugated isotype was used as negative control. Cells were washed twice, fixed and phosphoflow analysis performed as described in the FACS analysis section. The analysis was performed in triplicate and the mean fluorescence intensity (MFI) observed without stimulation was reported as 100%.

GFP^hi DN3a thymocytes = experiment: Cell cycle-restricted GFP^hi DN3a thymocytes in treated H2B-GFP;Lmo2^Tg mice; type: in vivo, mouse
[2] = tested on: IL-7R internalization in Ba/F3-IL7R cells; experiment: Colocalization of IL-7R with clathrin and Rab5 after IL-7 stimulation (immunofluorescence); type: cell-based, murine; details: Ba/F3-IL7R cells after IL-7 stimulation, vs vehicle; result in words
Method: For dynamic analysis of IL-7R internalization, 1 × 10^5 Ba/F3-IL-7R cells were incubated with Phycoerythrin (PE)-conjugated α-CD127 (A7R34, BioLegend) for 30 min on ice, washed twice in cold PBS 1×, resuspended in serum-free Dulbecco’s modified Eagle’s medium (DMEM) and stimulated with 50 ng/mL IL-7 at 37 °C for the indicated intervals. Cells were fixed, permeabilized and incubated with either α-clathrin (ab21679, Abcam Australia) or α-Rab5 (ab18211, Abcam Australia), as previously described. Washed cells were incubated in permeabilization buffer with donkey Alexa Fluor 488-conjugated anti-rabbit secondary antibody (A-21206, Molecular Probes, Life Technologies) for 1 h on ice. Cells were washed, incubated with 1 ng/mL 4′,6-diamidino-2-phenylindole for 15 min, washed twice and mounted using Mowiol mounting medium (81381, Sigma-Aldrich Pty Ltd, Castle Hill, NSW). For each independent experiment, at least 50 different fields of view were collected for blinded quantification, for each time point. All images were acquired using a Nikon A1r Plus SI inverted confocal microscope (Nikon Australia, Rhodes, NSW) using a Plan Apo ×60 oil objective.

[3] = tested on: normal murine hematopoietic stem and progenitor cells (HSPCs)
Method: Bone marrow cells collected from 2-month-old WT mice or CD34-positive (CD34+) stem and progenitor bone marrow cells from healthy donors were seeded at a density of 5 × 10^4 cells per 35 mm dish in semi-solid agar for GM colony growth, as previously described[92]. Cultures were incubated at 37 °C in 10% CO2 for 10 days in presence of 10 μg/mL rhIL-3 (#200-03, Pepro Tech), 25 μg/mL rhSCF (#300-07, Pepro Tech), 25 μg/mL rhFLT3-L (#300-19, Pepro Tech), rhIL-6 (#200-06, Pepro Tech), 500 nM StemRegenin 1 (SR1; #1227633-49-9, Stem Cell Technologies) and 35 nM UM-171 (#72914, Stem Cell Technologies)[93],[94], then stained with acetyl-cholinesterase and counted for the number of colonies.

SMILES | IL-7R (MFI) ([1]; +IL-7, Dynole 34-2 0.2 µM) | IL-7R (MFI) ([1]; +IL-7, Dynole 34-2 1.0 µM) | IL-7R (MFI) ([1]; +IL-7, Dynole 34-2 5.0 µM) | IL-7R (MFI) ([1]; +IL-7, Dynole 34-2 10.0 µM) | IL-7R (MFI) ([1]; +IL-7, Dynole 34-2 25.0 µM) | proportion of GFP^hi cells in DN3a thymocytes (GFP^hi DN3a thymocytes; H2B-GFP;Lmo2^Tg mice, result in words) | % GFPhi cells in DN3a population (GFP^hi DN3a thymocytes; mouse, in vivo) | repopulation activity and leukemogenicity of GFP^hi DN3a thymocytes (GFP^hi DN3a thymocytes; result in words) | colocalization of IL-7R and clathrin [2] | colocalization of IL-7R with Rab5 [2] | growth of normal hematopoietic stem and progenitor cells (HSPCs), clonogenic assay [3]
CCCCCCCCNC(=O)C(C#N)=Cc1cn(CCCN(C)C)c2ccccc12 [Dynole 34-2, 2-Cyano-N-octyl-3-(1-(3-dimethylaminopropyl)-1H-indol-3-yl)-acrylamide] | 6459 MFI and 6071 MFI and 5354 MFI and 5835 MFI and 6042 MFI and 5962 MFI | 6945 MFI and 7094 MFI and 7005 MFI and 6255 MFI and 6778 MFI and 5501 MFI | 8484 MFI and 8092 MFI and 6662 MFI and 7158 MFI and 8274 MFI and 7535 MFI | 7753 MFI and 8175 MFI and 8231 MFI and 7570 MFI | 9215 MFI and 8603 MFI and 7481 MFI and 8221 MFI and 8215 MFI and 7582 MFI | did not affect | 1.5% and 3.3% and 0.2% and 1.3% | significantly impaired | no significant difference | markedly reduced | 
N#CC[C@H](C1CCCC1)n1cc(-c2ncnc3[nH]ccc23)cn1 [Ruxolitinib] |  |  |  |  |  |  |  |  |  |  | significantly impaired
